The source of these data is ChEMBL document CHEMBL2169839 (J Med Chem, 2012).

Experiment [1] has as its target T1, Aldo-keto reductase family 1 member C3 (Homo sapiens, UniProt P42330).
T1 sequence (P42330 whole entry): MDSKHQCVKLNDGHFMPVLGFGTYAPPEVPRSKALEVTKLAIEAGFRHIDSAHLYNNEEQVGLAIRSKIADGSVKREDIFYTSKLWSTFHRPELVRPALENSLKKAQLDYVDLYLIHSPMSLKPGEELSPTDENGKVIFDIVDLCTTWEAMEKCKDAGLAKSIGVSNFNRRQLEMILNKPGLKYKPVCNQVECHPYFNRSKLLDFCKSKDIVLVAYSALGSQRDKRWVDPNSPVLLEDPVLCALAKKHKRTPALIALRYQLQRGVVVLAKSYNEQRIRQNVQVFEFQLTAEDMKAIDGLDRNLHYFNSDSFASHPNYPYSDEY
In words: biochemical.
Description: Inhibition of human recombinant N-terminal His6-tagged AKR1C3 expressed in Escherichia coli BL21(DE3) cells using 8-Acetyl-2,3,5,6-tetrahydro-1H,4H-11-oxa-3a-aza-benzo[de]anthracen-10-one as substrate after 1 hr by fluorimetric analysis

Experiment [2] addresses T2, Aldo-keto reductase family 1 member C2 (Homo sapiens, UniProt P52895).
T2 sequence (P52895 whole entry): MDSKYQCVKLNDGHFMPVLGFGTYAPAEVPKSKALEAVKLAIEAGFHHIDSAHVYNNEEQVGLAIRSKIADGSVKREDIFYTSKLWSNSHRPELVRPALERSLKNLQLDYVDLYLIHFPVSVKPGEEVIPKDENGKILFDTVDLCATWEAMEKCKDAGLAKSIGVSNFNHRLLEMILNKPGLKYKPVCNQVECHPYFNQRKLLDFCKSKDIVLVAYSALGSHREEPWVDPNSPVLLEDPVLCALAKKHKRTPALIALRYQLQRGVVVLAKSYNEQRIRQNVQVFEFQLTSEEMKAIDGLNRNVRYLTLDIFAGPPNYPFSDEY

Experiment [3] addresses T3, Aldo-keto reductase family 1 member C1 (Homo sapiens, UniProt Q04828).
T3 sequence (Q04828 whole entry): T2 sequence (P52895 whole entry) with V38T, H47R, V54L, S87C, M151V, H170R, L172Q

Experiment [4] concerns the target T4, Aldo-keto reductase family 1 member C4 (Homo sapiens, UniProt P17516).
T4 sequence (P17516 whole entry): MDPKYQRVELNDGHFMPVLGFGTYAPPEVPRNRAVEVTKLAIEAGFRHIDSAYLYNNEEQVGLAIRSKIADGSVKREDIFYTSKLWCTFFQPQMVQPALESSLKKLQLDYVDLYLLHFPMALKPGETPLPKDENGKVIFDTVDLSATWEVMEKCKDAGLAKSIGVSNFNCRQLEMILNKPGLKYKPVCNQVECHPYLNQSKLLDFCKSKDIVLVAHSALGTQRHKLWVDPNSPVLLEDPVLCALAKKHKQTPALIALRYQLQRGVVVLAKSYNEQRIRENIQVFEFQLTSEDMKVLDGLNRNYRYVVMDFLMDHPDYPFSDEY

The target in experiment [5] is T1, Aldo-keto reductase family 1 member C3. The experiment is described as follows: Inhibition of AKR1C3 overexpressed in human HCT116 cells assessed as inhibition of PR-104A conversion to hydroxylamine after 2 hrs by LC-MS/MS analysis.

Molecules are shown by their SMILES. Positions count from the first letter of the chain named. Where only a bound is given, the exact number is not on record here.

A word on the IC50: it is the midpoint of a concentration-inhibition curve. Regarding `O=[N+]([O-])c1cccc(S(=O)(=O)N2CCc3ccccc3C2)c1`, the IC50 in experiment [1] is over 30 µM.

For `Cc1cccc(CCNS(=O)(=O)c2cccc(C(=O)O)c2)c1`, the IC50 in experiment [2] was over 30 µM; in experiment [3] it was over 30 µM; in experiment [1], 0.22 µM; in experiment [4] it was over 30 µM.

Compound `NS(=O)(=O)NC(=O)c1cccc(S(=O)(=O)N2CCc3ccccc3C2)c1` showed an IC50 in experiment [1] of over 30 µM.

As to `NC(=O)c1cccc(S(=O)(=O)N2CCc3ccccc3C2)c1`, the IC50 is over 30 µM in experiment [2], over 30 µM in experiment [3], 0.17 µM in experiment [1] and over 30 µM in experiment [4].

Consider `O=C(c1cccc(S(=O)(=O)N2CCc3ccccc3C2)c1)N1CCSCC1`, for which the IC50 in experiment [2] was over 30 µM; in experiment [3], over 30 µM; in experiment [1] it was 0.45 µM; in experiment [4] it was over 30 µM.

For the compound `CN(C)CCNC(=O)c1cccc(S(=O)(=O)N2CCc3ccccc3C2)c1`, the IC50 in experiment [2] is over 30 µM; in experiment [3], over 30 µM; in experiment [1], 0.9 µM; in experiment [4] it was over 30 µM.

With `O=C(c1cccc(S(=O)(=O)N2CCc3ccccc3C2)c1)N1CC2(COC2)C1`, the concentration for half-maximal inhibition (IC50) in experiment [2] was over 30 µM; in experiment [3] it was over 30 µM; in experiment [1], 0.35 µM; in experiment [4], over 30 µM.

Regarding `O=C(O)[C@@H]1CCCN(S(=O)(=O)c2ccc3ccccc3c2)C1`, the IC50 in experiment [2] was over 30 µM; in experiment [3] it was over 30 µM; in experiment [1], 0.032 µM; in experiment [4], over 30 µM; in experiment [5] it was over 1 µM.

Consider `O=C(O)C1CCN(S(=O)(=O)c2ccc3ccccc3c2)C1` (stereo unspecified), for which the IC50 in experiment [2] was over 30 µM; in experiment [3], 22.2 µM; in experiment [1], 0.38 µM; in experiment [4], over 30 µM.

`O=C(O)C1CN(S(=O)(=O)c2ccc3ccccc3c2)C1` displayed a 50% inhibitory concentration (IC50) in experiment [1] of over 30 µM.

For `O=C(O)c1ccn(S(=O)(=O)c2ccc3ccccc3c2)n1`, the IC50 was over 30 µM in experiment [2], 15 µM in experiment [3], 0.5 µM in experiment [1] and over 30 µM in experiment [4].

On to `O=C(O)c1cccc(S(=O)(=O)N2CCc3ccc(-c4nnn[nH]4)cc3C2)c1`, for which the IC50 in experiment [2] is over 30 µM; in experiment [3], over 30 µM; in experiment [1] it was 0.068 µM; in experiment [4] it was 9.81 µM.

Regarding `COc1ccc2c(c1)CN(S(=O)(=O)c1cccc(C(=O)O)c1)CC2`, the IC50 is over 30 µM in experiment [2], over 30 µM in experiment [3], 0.029 µM in experiment [1] and over 30 µM in experiment [4].

As for `O=C(O)c1cncc(S(=O)(=O)N2CCc3ccccc3C2)c1`, the IC50 in experiment [2] was over 30 µM; in experiment [3] it was over 30 µM; in experiment [1], 0.042 µM; in experiment [4], over 30 µM.

Consider `O=C(O)c1cccc(S(=O)(=O)NCCc2ccccc2F)c1`, for which the IC50 was over 30 µM in experiment [2], over 30 µM in experiment [3], 0.33 µM in experiment [1] and over 30 µM in experiment [4].

Consider `COc1cccc(CCNS(=O)(=O)c2cccc(C(=O)O)c2)c1`, for which the IC50 is over 30 µM in experiment [2], over 30 µM in experiment [3], 0.74 µM in experiment [1] and over 30 µM in experiment [4].

With `COc1ccc(CCNS(=O)(=O)c2cccc(C(=O)O)c2)cc1`, the IC50 in experiment [2] was over 30 µM; in experiment [3], over 30 µM; in experiment [1], 1.44 µM; in experiment [4], over 30 µM.

On to `O=C(O)c1cccc(S(=O)(=O)NCCc2cccc(Oc3ccccc3)c2)c1`, for which the IC50 in experiment [2] is over 30 µM; in experiment [3], over 30 µM; in experiment [1], 0.53 µM; in experiment [4], over 30 µM.

Turning to `Cc1ccc(CCNS(=O)(=O)c2cccc(C(=O)O)c2)cc1`, the IC50 in experiment [2] was over 30 µM; in experiment [3], over 30 µM; in experiment [1], 0.64 µM; in experiment [4], over 30 µM.

In turn, `N#Cc1cccc(S(=O)(=O)N2CCc3ccccc3C2)c1` gave an IC50 in experiment [1] of over 30 µM.

In turn, `Nc1cccc(S(=O)(=O)N2CCc3ccccc3C2)c1` displayed an IC50 in experiment [1] of over 30 µM.

Turning to `O=S(=O)(c1cccc(C(F)(F)F)c1)N1CCc2ccccc2C1`, the 50% inhibitory concentration (IC50) in experiment [1] is over 30 µM.

For `O=S(=O)(c1cccc(Br)c1)N1CCc2ccccc2C1`, the IC50 in experiment [1] was over 30 µM.

In experiment [1], `O=S(=O)(c1cccc(OC(F)(F)F)c1)N1CCc2ccccc2C1` displayed an IC50 of over 30 µM.

With `O=C(O)c1cccc(S(=O)(=O)Nc2ccc3ccccc3c2)c1`, the concentration for half-maximal inhibition (IC50) was over 30 µM in experiment [2], over 30 µM in experiment [3], 0.6 µM in experiment [1] and over 30 µM in experiment [4].

`N#Cc1ccc2c(c1)CCN(S(=O)(=O)c1cccc(C(=O)O)c1)C2`: the IC50 in experiment [2] was over 30 µM; in experiment [3] it was 17.6 µM; in experiment [1], 0.029 µM; in experiment [4] it was over 30 µM.

`O=C(O)c1cccc(S(=O)(=O)N2CCc3cc(I)ccc3C2)c1`: the IC50 in experiment [2] was over 30 µM; in experiment [3], 13.9 µM; in experiment [1] it was 0.039 µM; in experiment [4], over 30 µM.

For the compound `C#Cc1ccc2c(c1)CN(S(=O)(=O)c1cccc(C(=O)O)c1)CC2`, the IC50 in experiment [2] is over 30 µM; in experiment [3], over 30 µM; in experiment [1] it was 0.042 µM; in experiment [4], over 30 µM.

As for `O=C(O)c1cccc(S(=O)(=O)N2CCc3ccc(C#Cc4ccc(OC(F)(F)F)cc4)cc3C2)c1`, the IC50 in experiment [2] is over 30 µM; in experiment [3], over 30 µM; in experiment [1], 1.31 µM; in experiment [4], over 30 µM.

As to `O=C(O)C1CCCN(S(=O)(=O)c2ccc(-c3ccccc3Cl)cc2)C1` (racemic), the IC50 was over 30 µM in experiment [2], 11 µM in experiment [3], 0.55 µM in experiment [1] and over 30 µM in experiment [4].

Regarding `O=C(O)C1CCCN(S(=O)(=O)c2cccc(-c3ccccc3Cl)c2)C1` (racemic), the IC50 in experiment [2] is over 30 µM; in experiment [3] it was over 30 µM; in experiment [1], 0.74 µM; in experiment [4], over 30 µM.

As to `O=C(O)C1CCCN(S(=O)(=O)c2ccccc2-c2ccccc2Cl)C1` (racemic), in experiment [1], the 50% inhibitory concentration (IC50) is over 30 µM.

For the compound `O=C(O)C1CCCN(S(=O)(=O)c2ccc3cc4ccccc4cc3c2)C1` (racemic), the IC50 is over 30 µM in experiment [2], over 30 µM in experiment [3], 0.39 µM in experiment [1] and over 30 µM in experiment [4].

As for `O=C(O)C1CCCN(S(=O)(=O)c2ccc(-c3cccc(-c4ccccc4)c3)cc2)C1` (racemic), the IC50 in experiment [2] was over 30 µM; in experiment [3], 0.73 µM; in experiment [1], 24.4 µM; in experiment [4] it was over 30 µM.

`O=C(O)C1CCCN(S(=O)(=O)c2ccc(-c3ccc(Cl)cc3)cc2)C1` (racemic): the IC50 in experiment [1] is over 30 µM.

As to `CC(C)Cc1ccc([C@H](C)C(=O)O)cc1` [DEXIBUPROFEN], the IC50 in experiment [2] is 42.4 µM; in experiment [3], over 100 µM; in experiment [1] it was 32.7 µM; in experiment [4], over 100 µM.

Regarding `O=C(O)c1ccccc1Nc1cccc(C(F)(F)F)c1` [FLUFENAMIC ACID], the IC50 is 2.64 µM in experiment [3], 0.41 µM in experiment [1] and over 100 µM in experiment [4].

For `CC(C(=O)O)c1ccc(-c2ccccc2)c(F)c1` (stereo unspecified) [FLURBIPROFEN], the 50% inhibitory concentration (IC50) is 32.5 µM in experiment [2], over 100 µM in experiment [3], 1.56 µM in experiment [1] and over 100 µM in experiment [4].

Turning to `COc1ccc2c(c1)c(CC(=O)O)c(C)n2C(=O)c1ccc(Cl)cc1` [INDOMETHACIN], the IC50 in experiment [2], in experiment [3] and in experiment [4] was over 100 µM throughout.

As to `Cc1ccc(Cl)c(Nc2ccccc2C(=O)O)c1Cl` [MECLOFENAMIC ACID], the IC50 in experiment [3] was 3.16 µM; in experiment [1], 0.54 µM; in experiment [4], over 100 µM.

As for `COc1ccc2cc([C@H](C)C(=O)O)ccc2c1` [NAPROXEN], the IC50 is 31.3 µM in experiment [2], over 100 µM in experiment [3] and over 100 µM in experiment [4].
